The values below are quoted from earlier work in patent publication US20220235034A1, “SELECTIVE HISTAMINE H3 RECEPTOR ANTAGONISTS FOR TREATING AUTISM SPECTRUM DISORDER” (RICHTER GEDEON NYRT., priority 2019, published 2022).

Series [1] addresses T1, histamine H3 receptor (Rattus norvegicus, UniProt Q9QYN8).
T1 construct: from tissue; host or cells: living rat (in vivo)
Particulars: in vivo in rats; cited from earlier work.

Series [2] addresses T2, histamine H3 receptor (Homo sapiens, UniProt Q9Y5N1). Particulars: cited from earlier work.
The target in series [3] is T2, histamine H3 receptor. The note with it: according to WO 2014/136075A1; cited from earlier work.
For series [4] the following is noted: 3 mg/kg intraperitoneally; cited from earlier work.
The target of series [5] is T3, rat monoamine oxidase B (Rattus norvegicus, UniProt P19643).
T3 sequence (P19643 1-520): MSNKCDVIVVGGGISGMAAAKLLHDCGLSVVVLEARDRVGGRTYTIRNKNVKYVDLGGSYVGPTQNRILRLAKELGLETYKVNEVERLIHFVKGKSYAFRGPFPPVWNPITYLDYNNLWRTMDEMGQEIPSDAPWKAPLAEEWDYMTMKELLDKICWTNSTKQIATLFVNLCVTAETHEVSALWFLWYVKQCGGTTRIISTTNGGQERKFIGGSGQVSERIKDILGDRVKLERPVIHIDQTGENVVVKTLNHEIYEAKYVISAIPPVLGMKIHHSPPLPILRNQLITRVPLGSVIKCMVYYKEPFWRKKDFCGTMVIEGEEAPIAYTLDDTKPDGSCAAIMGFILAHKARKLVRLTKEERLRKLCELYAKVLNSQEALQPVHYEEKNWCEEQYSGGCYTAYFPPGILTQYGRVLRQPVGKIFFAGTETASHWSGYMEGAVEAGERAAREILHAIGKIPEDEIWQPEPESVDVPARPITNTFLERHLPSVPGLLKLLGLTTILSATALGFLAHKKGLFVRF
The note with it: cited from earlier work.

Series [6] addresses T4, human monoamine oxidase B (Homo sapiens, UniProt P27338).
T4 sequence (P27338 1-520): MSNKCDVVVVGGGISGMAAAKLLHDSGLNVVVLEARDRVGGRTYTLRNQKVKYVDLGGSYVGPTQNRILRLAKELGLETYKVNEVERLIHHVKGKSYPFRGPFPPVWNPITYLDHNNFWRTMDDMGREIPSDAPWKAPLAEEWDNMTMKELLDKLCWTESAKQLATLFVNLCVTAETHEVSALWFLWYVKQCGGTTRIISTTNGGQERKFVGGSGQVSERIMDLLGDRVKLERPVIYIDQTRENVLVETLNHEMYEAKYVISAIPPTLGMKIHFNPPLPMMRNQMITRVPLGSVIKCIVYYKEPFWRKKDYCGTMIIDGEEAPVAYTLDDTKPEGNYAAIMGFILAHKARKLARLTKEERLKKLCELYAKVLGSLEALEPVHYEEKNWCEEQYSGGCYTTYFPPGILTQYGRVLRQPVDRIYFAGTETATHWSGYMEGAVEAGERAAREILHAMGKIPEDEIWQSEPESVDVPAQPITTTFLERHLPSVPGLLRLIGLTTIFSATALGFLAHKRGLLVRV
The note with it: cited from earlier work.

Series [7] has as its target T5, human monoamine oxidase A (Homo sapiens, UniProt P21397).
T5 sequence (P21397 1-527): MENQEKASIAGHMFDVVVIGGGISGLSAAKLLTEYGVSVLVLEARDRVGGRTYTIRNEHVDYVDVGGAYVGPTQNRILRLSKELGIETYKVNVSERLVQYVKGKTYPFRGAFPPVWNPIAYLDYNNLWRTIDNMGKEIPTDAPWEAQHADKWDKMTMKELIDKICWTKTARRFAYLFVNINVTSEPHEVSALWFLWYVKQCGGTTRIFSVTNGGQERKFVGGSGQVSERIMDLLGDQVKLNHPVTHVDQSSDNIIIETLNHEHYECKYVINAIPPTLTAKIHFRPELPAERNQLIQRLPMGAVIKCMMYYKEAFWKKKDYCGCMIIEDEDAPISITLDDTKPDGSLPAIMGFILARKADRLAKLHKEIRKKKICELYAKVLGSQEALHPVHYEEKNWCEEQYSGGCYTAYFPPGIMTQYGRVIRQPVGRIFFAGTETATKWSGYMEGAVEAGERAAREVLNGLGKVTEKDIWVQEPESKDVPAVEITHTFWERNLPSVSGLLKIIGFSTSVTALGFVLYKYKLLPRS
The note with it: cited from earlier work.

Series [8] deals with prenatally VPA-exposed mice. The note with it: cited from earlier work.
Series [9] has as its target T6, rat monoamine oxidase A (Rattus norvegicus, UniProt P21396).
T6 sequence (P21396 1-526): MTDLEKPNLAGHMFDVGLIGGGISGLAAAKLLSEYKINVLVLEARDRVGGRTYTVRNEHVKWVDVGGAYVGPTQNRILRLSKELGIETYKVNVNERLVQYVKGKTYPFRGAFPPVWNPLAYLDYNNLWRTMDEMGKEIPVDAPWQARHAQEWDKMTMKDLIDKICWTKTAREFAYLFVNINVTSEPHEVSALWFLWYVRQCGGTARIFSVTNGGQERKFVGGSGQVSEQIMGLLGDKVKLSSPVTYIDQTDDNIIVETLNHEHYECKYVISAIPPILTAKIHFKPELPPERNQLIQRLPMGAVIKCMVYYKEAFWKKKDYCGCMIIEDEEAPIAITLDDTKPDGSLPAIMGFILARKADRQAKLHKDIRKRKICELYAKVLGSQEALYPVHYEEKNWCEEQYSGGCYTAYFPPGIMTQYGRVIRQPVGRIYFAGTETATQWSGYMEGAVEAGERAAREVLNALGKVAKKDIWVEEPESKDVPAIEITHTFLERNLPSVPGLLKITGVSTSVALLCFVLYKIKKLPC
The note with it: cited from earlier work.

Series [10] relates to prenatal VPA model. The note with it: in vivo; cited from earlier work.
The subject of series [11] is ASD subjects. The note with it: humans; cited from earlier work.
[12] abbreviates: 3 mg/kg intraperitoneally, prenatal valproate model in mice.

T2 sequence (Q9Y5N1 whole entry, species assumed): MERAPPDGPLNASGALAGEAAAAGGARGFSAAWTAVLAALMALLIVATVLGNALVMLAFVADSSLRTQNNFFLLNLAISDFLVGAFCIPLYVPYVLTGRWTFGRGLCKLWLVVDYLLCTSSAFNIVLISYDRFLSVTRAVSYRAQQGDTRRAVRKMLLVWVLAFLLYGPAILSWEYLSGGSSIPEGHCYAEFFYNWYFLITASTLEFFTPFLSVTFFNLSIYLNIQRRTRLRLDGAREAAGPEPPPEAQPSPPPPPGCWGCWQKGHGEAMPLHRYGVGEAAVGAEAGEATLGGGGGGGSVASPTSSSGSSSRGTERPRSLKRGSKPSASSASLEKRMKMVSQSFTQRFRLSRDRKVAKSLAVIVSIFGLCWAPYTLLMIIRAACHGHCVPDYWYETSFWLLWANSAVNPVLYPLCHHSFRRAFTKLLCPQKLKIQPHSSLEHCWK
T1 sequence (Q9QYN8 whole entry): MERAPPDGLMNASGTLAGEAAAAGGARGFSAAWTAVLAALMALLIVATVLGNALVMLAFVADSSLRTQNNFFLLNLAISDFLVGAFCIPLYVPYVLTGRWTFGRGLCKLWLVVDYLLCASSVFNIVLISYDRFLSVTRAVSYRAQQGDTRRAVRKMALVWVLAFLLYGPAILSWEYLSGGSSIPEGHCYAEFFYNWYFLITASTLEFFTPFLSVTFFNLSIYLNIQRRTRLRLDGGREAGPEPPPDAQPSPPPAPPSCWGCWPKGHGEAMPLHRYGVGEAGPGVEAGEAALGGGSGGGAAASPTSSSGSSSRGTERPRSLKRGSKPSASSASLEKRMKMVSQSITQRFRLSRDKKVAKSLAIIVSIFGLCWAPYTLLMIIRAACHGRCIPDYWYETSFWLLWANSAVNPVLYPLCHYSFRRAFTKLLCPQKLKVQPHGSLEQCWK

Regarding `CC(=O)N1CCC(Oc2ccc(OCCCN3CCC[C@H]3C)cc2)CC1` [Compound of Formula 1, 1-[4-(4-{3-[(2R)-2-methylpyrrolidin-1-yl]-propoxy}-phenoxy)-piperidin-1-yl]-ethan-1-on], in [1], the “histamine H3 receptor antagonism in vivo” value is listed as “shows histamine H3 receptor antagonism in vivo”. The “functional behaviour in vitro” value in series [2] is listed as “receptor antagonist/inverse agonist”. Further, in [3], the “affinity for histamine H3 receptor” value is reported as “high affinity” and the “selectivity for histamine H3 receptor” value is “highly selective”.
As to `O=C(c1ccc(OCCCc2cnc[nH]2)cc1)C1CC1` [ciproxifan], the plasma exposures result in series [4] is on record as “micromolar range”. Further, the “inhibition of monoamine oxidase B, concentration range” value in [5] and in series [6] (human) was “micromolar concentration range” each time. Also, in series [6] (human and rat enzymes), the “preference between monoamine oxidase A and B” value is “slight preference for monoamine oxidase B”. Moreover, the “inhibition of monoamine oxidase A, concentration range” value in [7] and in [9] was “micromolar concentration range” in each case. Further, the excessive repetitive behavior result in series [8] (setting [12]) is “improved”. The social deficits result in series [8] (setting [12]) was “improved”. In series [8] (prenatally VPA-exposed mice), the social novelty preference result was “did not have an effect”.
As to `CC[C@H](C)[C@@H]1NC(=O)[C@H](Cc2ccc(O)cc2)NC(=O)[C@@H](N)CSSC[C@@H](C(=O)N2CCC[C@H]2C(=O)N[C@@H](CC(C)C)C(=O)NCC(N)=O)NC(=O)[C@H](CC(N)=O)NC(=O)[C@H](CCC(N)=O)NC1=O` [oxytocin], the “behavioral impairments in the prenatal VPA model” value in series [10] is listed as “improve behavioral impairments”. For the same compound, the “efficacy signals in ASD subjects” value in series [11] is “produced efficacy signals”.
